Reference: patent US10077243B2, “Compounds for treating disorders mediated by metabotropic glutamate receptor 5, and methods of use thereof” (Sunovion Pharmaceuticals Inc., priority 2009, dated 2018)

Molecular target: T1, human mGluR5 (Homo sapiens, UniProt P41594)
T1 construct: expressed in transfected cells; host or cells: HEK293 cells stably expressing rat GLAST (EAAT1), stably transfected with pcDNAzeo3.1 carrying synthetic human mGluR5 DNA; zeocin-selected single clones
Experiment: In vitro cell-based FLIPR calcium assay for positive modulation of the activation of mGluR5 by glutamate (PAM EC50)
Conditions: HEK293/GLAST cells expressing recombinant human mGluR5; FLIPR calcium signal; glutamate added at its EC20; read-out: mGluR5 PAM EC50
How it was run: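 HEK293/GLAST cells stably expressing mGluR5 were loaded with calcium-sensitive dye (25 °C, 45–60 min) in HBSS/20 mM HEPES. Test compounds were assayed in buffer containing glutamate at that day's EC20, with FLIPR fluorescence recorded. Controls contained 0.3% DMSO without compound.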

T1 sequence (P41594 21-1212): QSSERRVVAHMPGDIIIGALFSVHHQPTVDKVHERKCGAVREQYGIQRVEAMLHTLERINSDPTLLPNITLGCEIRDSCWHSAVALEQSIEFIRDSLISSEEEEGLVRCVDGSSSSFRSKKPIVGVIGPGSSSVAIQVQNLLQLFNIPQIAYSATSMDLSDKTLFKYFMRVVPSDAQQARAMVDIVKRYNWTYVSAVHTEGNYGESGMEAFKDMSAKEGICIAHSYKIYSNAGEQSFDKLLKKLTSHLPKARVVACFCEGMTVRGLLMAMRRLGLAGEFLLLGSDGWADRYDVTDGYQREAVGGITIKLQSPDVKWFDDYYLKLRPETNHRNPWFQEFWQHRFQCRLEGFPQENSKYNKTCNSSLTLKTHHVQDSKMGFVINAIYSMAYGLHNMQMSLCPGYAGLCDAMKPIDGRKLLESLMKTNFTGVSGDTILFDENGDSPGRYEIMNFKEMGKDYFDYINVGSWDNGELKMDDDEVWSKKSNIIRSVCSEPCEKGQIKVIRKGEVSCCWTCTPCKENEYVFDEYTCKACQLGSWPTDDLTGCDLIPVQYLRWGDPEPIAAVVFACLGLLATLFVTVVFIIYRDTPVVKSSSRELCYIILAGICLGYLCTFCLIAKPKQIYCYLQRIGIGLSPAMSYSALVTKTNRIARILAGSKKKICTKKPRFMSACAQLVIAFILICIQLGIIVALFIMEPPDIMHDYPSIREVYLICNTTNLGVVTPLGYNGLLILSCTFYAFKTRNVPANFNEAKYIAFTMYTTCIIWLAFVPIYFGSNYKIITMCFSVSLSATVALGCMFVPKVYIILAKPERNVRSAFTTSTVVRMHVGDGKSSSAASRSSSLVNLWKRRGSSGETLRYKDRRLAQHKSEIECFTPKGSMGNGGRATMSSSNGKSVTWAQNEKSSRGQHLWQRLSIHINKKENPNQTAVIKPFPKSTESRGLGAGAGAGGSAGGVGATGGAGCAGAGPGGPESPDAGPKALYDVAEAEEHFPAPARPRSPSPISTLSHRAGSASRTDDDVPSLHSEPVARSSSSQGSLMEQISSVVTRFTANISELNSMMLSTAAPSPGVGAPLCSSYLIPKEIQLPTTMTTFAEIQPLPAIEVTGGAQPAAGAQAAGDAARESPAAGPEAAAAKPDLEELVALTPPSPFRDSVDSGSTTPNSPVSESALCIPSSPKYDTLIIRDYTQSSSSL

Row | SMILES | EC50 [nM]
1 | Cc1ccnc(C#Cc2ccc3c(=O)n4c(nc3c2)CCC2(CC4)OCCO2)c1 [Example 7.48] | 30 to 100
2 | CC(C)Cc1nc2cc(C#Cc3cccc(F)c3)ccc2c(=O)n1C [Example 2.12, 7-((3-fluorophenyl)ethynyl)-2-isobutyl-3-methylquinazolin-4(3H)-one] | 30 to 100
3 | O=c1c2ccc(C#Cc3ccccn3)cc2nc2n1CC1CCCN1CC2 (single isomer, unassigned) [Example 9.4a/9.4b slower moving enantiomer (fraction 2), 9-(pyridin-2-ylethynyl)-2,3,5,6,14,14a-hexahydropyrrolo[2′,1′:3,4][1,4]diazepino[7,1-b]quinazolin-12(1H)-one] | 100 to 300
4 | CC(C)Cn1cnc2cc(C#Cc3cccc(F)c3)ccc2c1=O [Example 1.20, 7-((3-fluorophenyl)ethynyl)-3-isobutylquinazolin-4(3H)-one] | 30 to 100
5 | O=c1c2ccc(C#Cc3ccco3)cc2nc2n1CCC1(CC2)OCCO1 [Example 7.55] | 30 to 100
6 | CC(C)N(C)C(C)c1nc2cc(C#Cc3ccccn3)ccc2c(=O)n1C (stereo not shown) [Example 2.22, 2-(1-(isopropyl(methyl)amino)ethyl)-3-methyl-7-(pyridin-2-ylethynyl)quinazolin-4(3H)-one] | 300 to 1000
7 | O=c1c2ccc(C#Cc3ccccn3)cc2nc2n1CCC1(CC2)OCCO1 [Example 7.10] | 30 to 100
8 | CC1CCc2nc3cc(C#Cc4ccccn4)cnc3c(=O)n2CC1 (single isomer, unassigned) [11.9a/11.9b slower moving enantiomer (fraction 2), 8-methyl-3-(pyridin-2-ylethynyl)-7,8,9,10-tetrahydropyrido[3′,2′:4,5]pyrimido[1,2-a]azepin-12(6H)-one] | 10 to 30
9 | O=c1c2ccc(C#Cc3ccccc3C(F)(F)F)cc2nc2n1CCC1(CC2)OCCO1 [Example 7.40] | 100 to 300
10 | O=c1c2ccc(C#CC3=CCCC3)cc2nc2n1CCC1(CC2)OCCO1 [Example 7.51] | 100 to 300
11 | O=c1c2ccc(C#Cc3cccc(Cl)c3)cc2nc2n1CCC1(CC2)OCCO1 [Example 7.8] | 300 to 1000
12 | O=C1CCc2nc3cc(C#Cc4cccc(F)c4)ccc3c(=O)n2CCN1 [Example 10.5, 9-((3-fluorophenyl)ethynyl)-2,3,5,6-tetrahydro-1H-[1,4]diazocino[8,1-b]quinazoline-4,12-dione] | 30 to 100
13 | CC1(C)Cn2c(nc3cc(C#Cc4ccccn4)ccc3c2=O)CO1 [Example 4.40, 3,3-dimethyl-9-(pyridin-2-ylethynyl)-3,4-dihydro-[1,4]oxazino[3,4-b]quinazolin-6(1H)-one] | 10 to 30
14 | O=c1c2ccc(C#Cc3cccc(F)c3)cc2nc2n1CCN(CC1CCCO1)CC2 (stereo not shown) [Example 8.16, 8-((3-fluorophenyl)ethynyl)-3-((tetrahydrofuran-2-yl)methyl)-2,3,4,5-tetrahydro-[1,4]diazepino[7,1-b]quinazolin-11(1H)-one] | 100 to 300
15 | O=c1c2ccc(C#Cc3ccccn3)cc2nc2n1CC(CO)C2 (stereo not shown) [Example 3.18, 2-(hydroxymethyl)-6-(pyridin-2-ylethynyl)-2,3-dihydropyrrolo[2,1-b]quinazolin-9(1H)-one] | 100 to 300
16 | COCC1CCc2nc3cc(C#Cc4cccc(F)c4)ccc3c(=O)n2CC1 (stereo not shown) [Example 6.24, 3-((3-fluorophenyl)ethynyl)-8-(methoxymethyl)-7,8,9,10-tetrahydroazepino[2,1-b]quinazolin-12(6H)-one] | 10 to 30
17 | O=c1c2ccc(C#Cc3cccs3)cc2nc2n1CCC1(CC2)OCCO1 [Example 7.57] | 30 to 100
18 | O=c1c2ccc(C#Cc3ccc(F)cc3)cc2ncn1C1CCCC1 [Example 1.10, 3-cyclopentyl-7-((4-fluorophenyl)ethynyl)quinazolin-4(3H)-one] | 30 to 100
19 | O=c1c2ncc(C#Cc3ccccn3)cc2nc2n1CC1CCCN1C2 (stereo not shown) [Example 11.6, 3-(pyridin-2-ylethynyl)-9,10,10a,11-tetrahydro-6H-pyrido[3,2-d]pyrrolo[1′,2′:4,5]pyrazino[1,2-a]pyrimidin-13(8H)-one] | 300 to 1000
20 | O=c1c2ccc(C#Cc3ccc(F)cc3)cc2nc2n1CCOC2 [Example 4.2, 9-((4-fluorophenyl)ethynyl)-3,4-dihydro-[1,4]oxazino[3,4-b]quinazolin-6(1H)-one] | 30 to 100
21 | CN(C)C1CCc2nc3cc(C#Cc4cccc(F)c4)ccc3c(=O)n2C1 (stereo not shown) [Example 4.30, 8-(dimethylamino)-3-((3-fluorophenyl)ethynyl)-8,9-dihydro-6H-pyrido[2,1-b]quinazolin-11(7H)-one] | 100 to 300
22 | O=c1c2ccc(C#Cc3ccsc3)cc2nc2n1CCC1(CC2)OCCO1 [Example 7.59] | 10 to 30
23 | O=c1c2ccc(C#Cc3ccc(F)cc3)cc2nc2n1CCC1(CC2)OCCO1 [Example 7.3] | 30 to 100
24 | CC1(C)CNc2nc3cc(C#Cc4ccccn4)ccc3c(=O)n2C1 [Example 5.26, 3,3-dimethyl-9-(pyridin-2-ylethynyl)-3,4-dihydro-1H-pyrimido[2,1-b]quinazolin-6(2H)-one] | < 10
25 | O=c1c2ccc(C#Cc3ccccn3)cc2nc2n1CCC(CO)C2 (stereo not shown) [Example 4.37, 7-(hydroxymethyl)-3-(pyridin-2-ylethynyl)-8,9-dihydro-6H-pyrido[2,1-b]quinazolin-11(7H)-one] | 30 to 100

More lines, now with the values ahead:

Row | EC50 [nM] | SMILES
26 | < 10 | Cc1cnc(NC(=O)c2ccn3c(=O)c4c(nc3c2)CCCCCC4)s1 [Example 28.1, N-(5-methylthiazol-2-yl)-12-oxo-7,8,9,10,11,12-hexahydro-6H-cycloocta[d]pyrido[1,2-a]pyrimidine-3-carboxamide]
27 | < 10 | O=c1c2c(nc3cc(C#Cc4ccccn4)ccn13)CCCCCC2 [Example 17.2, 3-(pyridin-2-ylethynyl)-8,9,10,11-tetrahydro-6H-cycloocta[d]pyrido[1,2-a]pyrimidin-12(7H)-one]
28 | < 10 | O=c1c2c(nc3cc(C#Cc4ccccn4)ccn13)CCCCC2 [Example 16.3, 3-(pyridin-2-ylethynyl)-7,8,9,10-tetrahydrocyclohepta[d]pyrido[1,2-a]pyrimidin-11(6H)-one]
29 | 30 to 100 | CC1Cc2nc3cc(/C=C/c4ccccc4)ccc3c(=O)n2C1 (stereo not shown) [Example 20.4, (E)-2-methyl-6-styryl-2,3-dihydropyrrolo[2,1-b]quinazolin-9(1H)-one]
30 | 30 to 100 | COCc1cnc2cc(C#Cc3cccc(F)c3)ccn2c1=O [Example 13.7, 8-((3-fluorophenyl)ethynyl)-3-(methoxymethyl)-4H-pyrido[1,2-a]pyrimidin-4-one]
31 | 100 to 300 | CC1(C)CCn2c(nc3cc(/C=C/c4cccc(C#N)n4)ccc3c2=O)C1 [Example 20.9, (E)-6-(2-(7,7-dimethyl-11-oxo-7,8,9,11-tetrahydro-6H-pyrido[2,1-b]quinazolin-3-yl)vinyl)picolinonitrile]
32 | < 10 | CCOC(C)c1cnc2cc(C#Cc3cccc(F)c3)ccn2c1=O (stereo not shown) [Example 13.2, 3-(1-ethoxyethyl)-8-((3-fluorophenyl)ethynyl)-4H-pyrido[1,2-a]pyrimidin-4-one]
33 | 10 to 30 | COCCc1cnc2cc(C#Cc3cccc(F)c3)ccn2c1=O [Example 13.10, 8-((3-fluorophenyl)ethynyl)-3-(2-methoxyethyl)-4H-pyrido[1,2-a]pyrimidin-4-one]
34 | 10 to 30 | COCCc1cnc2cc(C#Cc3ccc(F)cc3)ccn2c1=O [Example 13.11, 8-((4-fluorophenyl)ethynyl)-3-(2-methoxyethyl)-4H-pyrido[1,2-a]pyrimidin-4-one]
